From PubChem BioAssay (NCI)
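Values below derive from 48-hour exposures of cells grown in 96-well plates, with endpoints linearly interpolated between the two concentrations bracketing the appropriate inhibition level. At the GI50, growth is halved. At the TGI there is no net growth.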

What was measured:
Assay in all cases: NCI tumour cell line growth inhibition, 48 h
[1] = system: 786-0 renal
[2] = system: A549 NSCLC
[3] = system: ACHN renal
[4] = system: BT-549 breast
[5] = system: CAKI-1 renal
[6] = system: CCRF-CEM leukemia
[7] = system: COLO 205 colon
[8] = system: DU-145 prostate
[9] = system: EKVX NSCLC
[10] = system: HCC-2998 colon
[11] = system: HCT-116 colon
[12] = system: HCT-15 colon
[13] = system: HL-60(TB) leukemia
[14] = system: HOP-62 NSCLC
[15] = system: HOP-92 NSCLC
[16] = system: HS 578T breast
[17] = system: HT29 colon
[18] = system: IGROV1 ovarian
[19] = system: K-562 leukemia
[20] = system: KM12 colon
[21] = system: LOX IMVI melanoma
[22] = system: M14 melanoma
[23] = system: MALME-3M melanoma
[24] = system: MCF7 breast
[25] = system: MDA-MB-231 breast
[26] = system: MDA-MB-435
[27] = system: MOLT-4 leukemia
[28] = system: NCI-H226 lung
[29] = system: NCI-H23 lung
[30] = system: NCI-H460 lung
[31] = system: NCI-H522 lung
[32] = system: NCI/ADR-RES ovarian
[33] = system: OVCAR-3 ovarian
[34] = system: OVCAR-4 ovarian
[35] = system: OVCAR-5 ovarian
[36] = system: OVCAR-8 ovarian
[37] = system: PC-3 prostate
[38] = system: RPMI-8226 leukemia
[39] = system: RXF 393 renal
[40] = system: SF-268 CNS
[41] = system: SF-295 CNS
[42] = system: SF-539 CNS
[43] = system: SK-MEL-2 melanoma
[44] = system: SK-MEL-28 melanoma
[45] = system: SK-MEL-5 melanoma
[46] = system: SK-OV-3 ovarian
[47] = system: SN12C renal
[48] = system: SNB-19 CNS
[49] = system: SNB-75 CNS
[50] = system: SR leukemia
[51] = system: SW-620 colon
[52] = system: T-47D breast
[53] = system: TK-10 renal
[54] = system: U251 CNS
[55] = system: UACC-257 melanoma
[56] = system: UACC-62 melanoma
[57] = system: UO-31 renal

`COc1ccc(OC)c(NC(=O)c2cccc(NC3=C(Cl)C(=O)N(Cc4ccccc4)C3=O)c2)c1` was tested, and the GI50 [1] was > 96.2 µM, the TGI [1] was > 100 µM and the GI50 [2] was > 100 µM. For the same compound, the TGI [2] was > 100 µM, the GI50 [3] was > 100 µM and the TGI [3] was > 100 µM. The GI50 [4] was 18.3 µM, the TGI [4] was > 100 µM and the GI50 [5] was > 100 µM. The TGI [5] was > 100 µM, the TGI [6] was > 100 µM and the GI50 [7] was > 100 µM. The TGI [7] was > 100 µM, the GI50 [8] was 27.8 µM and the TGI [8] was > 100 µM. The GI50 [9] was 2490 nM, the TGI [9] was 4.94 µM and the GI50 [10] was 70.4 µM. For the same compound, the TGI [10] was > 100 µM, the GI50 [11] was > 86.2 µM and the TGI [11] was > 100 µM. For the same compound, the GI50 [12] was > 100 µM, the TGI [12] was > 100 µM and the GI50 [13] was 5.82 µM. The TGI [13] was > 100 µM, the GI50 [14] was > 83.5 µM and the TGI [14] was > 100 µM. The GI50 [15] was > 100 µM, the TGI [15] was > 100 µM and the GI50 [16] was > 100 µM. For the same compound, the TGI [16] was > 100 µM, the GI50 [17] was > 100 µM and the TGI [17] was > 100 µM. The GI50 [18] was > 100 µM, the TGI [18] was > 100 µM and the GI50 [19] was 35.4 µM. For the same compound, the TGI [19] was > 100 µM, the GI50 [20] was > 100 µM and the TGI [20] was > 100 µM. For the same compound, the GI50 [21] was > 100 µM, the TGI [21] was > 100 µM and the GI50 [22] was > 75 µM. The TGI [22] was > 100 µM, the GI50 [23] was > 49.3 µM and the TGI [23] was > 86.4 µM. The GI50 [24] was > 48.2 µM, the TGI [24] was > 100 µM and the GI50 [25] was > 35.7 µM. For the same compound, the TGI [25] was > 54.1 µM, the GI50 [26] was > 64.7 µM and the TGI [26] was > 100 µM. For the same compound, the GI50 [27] was 7.66 µM, the TGI [27] was > 100 µM and the GI50 [28] was > 67.3 µM. For the same compound, the TGI [28] was > 100 µM, the GI50 [29] was > 70.8 µM and the TGI [29] was > 100 µM. The GI50 [30] was > 58.1 µM, the TGI [30] was > 100 µM and the GI50 [31] was > 100 µM. For the same compound, the TGI [31] was > 100 µM, the GI50 [32] was > 67.8 µM and the TGI [32] was > 100 µM. For the same compound, the GI50 [33] was > 100 µM, the TGI [33] was > 100 µM and the GI50 [34] was > 100 µM. For the same compound, the TGI [34] was > 100 µM, the GI50 [35] was > 73 µM and the TGI [35] was > 100 µM. The GI50 [36] was > 76.8 µM, the TGI [36] was > 100 µM and the GI50 [37] was 38.2 µM. The TGI [37] was > 100 µM, the GI50 [38] was 15.9 µM and the TGI [38] was > 79 µM. The GI50 [39] was > 74.6 µM, the TGI [39] was > 100 µM and the GI50 [40] was > 69.2 µM. The TGI [40] was > 100 µM, the GI50 [41] was > 75.3 µM and the TGI [41] was > 100 µM. The GI50 [42] was > 94.9 µM, the TGI [42] was > 100 µM and the GI50 [43] was > 100 µM. For the same compound, the TGI [43] was > 100 µM, the GI50 [44] was > 100 µM and the TGI [44] was > 100 µM. The GI50 [45] was 26.6 µM, the TGI [45] was 87.7 µM and the GI50 [46] was > 100 µM. For the same compound, the TGI [46] was > 100 µM, the GI50 [47] was > 58.1 µM and the TGI [47] was > 100 µM. The GI50 [48] was > 100 µM, the TGI [48] was > 100 µM and the GI50 [49] was > 100 µM. The TGI [49] was > 100 µM, the GI50 [50] was 7.8 µM and the TGI [50] was > 87.6 µM. For the same compound, the GI50 [51] was > 100 µM, the TGI [51] was > 100 µM and the GI50 [52] was > 100 µM. The TGI [52] was > 100 µM, the GI50 [53] was > 59.5 µM and the TGI [53] was > 100 µM. The GI50 [54] was > 100 µM, the TGI [54] was > 100 µM and the GI50 [55] was 23.5 µM. For the same compound, the TGI [55] was > 100 µM, the GI50 [56] was > 63.1 µM and the TGI [56] was > 100 µM. For the same compound, the GI50 [57] was > 90.3 µM and the TGI [57] was > 100 µM.
